The nature of assay [1]: ABTS•+ scavenging capacity. The assay is classed as biochemical. As to conditions: mean ± SD, n = 3. As for the experimental part: The ABTS^•+ radical scavenging assay was employed to determine the antioxidant activity of G. pinifolium conventional extracts; the radical solution was prepared 16 h before the measurements mixing 7 mM ABTS and 2.45 mM K2S2O8, and the solution was stored protected from the light at room temperature until the ABTS radical formation. For the assay, were mixed 250 µL of ABTS radical with an increasing concentration of sample or positive control (Trolox), and after half an hour, the absorbance was measured at 734 nm with a Synergy HTX microplate reader. The results are expressed as IC50 in µg of extract or Trolox per mL. The percentage of radical inhibition formula was employed for the ABTS inhibition calculation, then the IC50 was calculated through linear regression (concentration vs. inhibition percentage), and the data is reported as the mean ± SD.

Assay [2] in a line: Radical DPPH inhibition. The assay is classed as biochemical. To be noted: mean ± SD, n = 3. (In general: DPPH is a stable violet radical that fades when it is reduced.)
Description: The radical DPPH inhibition was performed by mixing thoroughly 150 µL of DPPH 400 μM with 50 µL of the sample or positive control, the 96-well microplate was kept protected from the light, and after half hour of reaction, the absorbance was recorded at 515 nm in a Synergy HTX microplate reader [13, 16]. All the measurements were performed in triplicate. The data are expressed as IC50 in µg of extract or standard per mL and reported as the mean ± SD. The determination of the IC50 was performed using linear regression. Methanol was employed as a negative control and BHT as a positive control. The percentage of DPPH radical inhibition was calculated according to the following equation: Percentage of radical inhibition (%)=(1−A−As/ADPPH)×100
A: is the absorbance of the mixture of extract and radical, As: is the absorbance of the methanol and extract, and ADDPH: is the absorbance of the radical work solution.
Assay [3] relates to WiDr cells (colon). Briefly: Antiproliferative activity (SRB), WiDr. The format is cell-based, human. As to conditions: 48 h, means ± SEM, n = 3. As for the experimental part: (§1) Stock solutions in DMSO of the samples were prepared to dissolve the plant extract at a concentration of 100 mg/mL and the pure compounds 1–2 at 40 mM. For the antiproliferative activity tests, human solid tumor cells (100 µL) were seeded onto 96-well plates at a density of 2500 (A549, HBL-100, HeLa, and SW1573) or 5000 (T-47D, and WiDr) cells/well.
(§2) On the next day, the samples were added to the cell cultures in triplicate at decimal dilutions in the range 250 to 2.5 µg/mL for the extracts and 100 to 0.001 µM for compounds 1–2. Control cells were exposed to an equivalent amount of DMSO (0.25% v/v, negative control). Cells were incubated for an additional 48 h, after which time they were precipitated with 25 μL of ice-cold TCA (50% w/v) and fixed for 60 min at 4 °C [20]. Following sulforhodamine B staining, the optical density (OD) of each well was measured at 530 nm using a BioTek Power Wave XS absorbance microplate reader. Values were corrected with the background OD of the wells containing the control. […] The cell lines used in this study were kindly provided by Prof. Godefridus J. Peters (VUmc, Amsterdam, The Netherlands).

Assay [4] deals with A549 cells (lung). Briefly: Antiproliferative activity (SRB), A549. The assay is classed as cell-based, human. To be noted: means ± SEM, n = 3. As for the experimental part:
as §1, §2

The test system of assay [5] is HeLa cells (cervix). Briefly: Antiproliferative activity (SRB), HeLa. The format is cell-based. As to conditions: 48 h; for GI50 / TGI (total growth inhibition) against HeLa cells: SRB; for GI50: means ± SEM, n = 3; for LC50 (50% lethal concentration): read-out: LC50 against HeLa cells. As for the experimental part: as §1, §2
Assay [6] deals with SW1573 cells (lung). The assay is described as follows: Antiproliferative activity (SRB), SW1573. The assay is classed as cell-based, human. As to conditions: means ± SEM, n = 3. As for the experimental part: as §1, §2
Assay [7] deals with HBL-100 cells (breast). Briefly: Antiproliferative activity (SRB), HBL-100. The format is cell-based, human. To be noted: means ± SEM, n = 3. As for the experimental part: as §1, §2
The subject of assay [8] is T-47D cells (breast). Briefly: Antiproliferative activity (SRB), T-47D. The assay is classed as cell-based, human. To be noted: 48 h, means ± SEM, n = 3. As for the experimental part: as §1, §2
Assay [9] addresses T1, butyrylcholinesterase (BChE) (Equus caballus, UniProt P81908).
T1 construct: purchased Sigma-Aldrich Chem. Co. (St. Louis, MO, USA); host or cells: equine serum
The assay is described as follows: biochemical. As to conditions: means ± SD, n = 3; read-out: BChE Inhibition IC50 (converted). As for the experimental part:
(§3) The systems Arium 126 61316-RO and Arium 611 UV unit (Sartorius, Goettingen, Germany) were employed to get the ultra-pure water. […] Formic acid, methanol, ethyl acetate, and n-hexane of HPLC grade were obtained from Merk® (Santiago, Chile).
(§4) The Ellman method was used for the determination of the inhibitory potential against AChE and BChE. The enzymes were dissolved in Tris-HCl buffer 50 mM at pH 8.0 at the final concentration of 0.26 U/mL, and samples were prepared at 2 mg/mL and dissolved in buffer. […] Finally, to start the reaction, we added 20 µL of the substrate (acetyl-thiocholine iodide for AChE inhibition or butyryl-thiocholine chloride for BChE inhibition assays), and the absorbance was recorded at 405 nm for half an hour at 37 °C. The analysis was performed in triplicate, and the results are expressed as IC50.

Assay [10] deals with T2, acetylcholinesterase (AChE) (Electrophorus electricus, UniProt O42275).
T2 construct: purchased Sigma-Aldrich Chem. Co. (St. Louis, MO, USA)
The assay is described as follows: biochemical. As to conditions: means ± SD, n = 3; read-out: AChE Inhibition IC50 (converted). As for the experimental part:
as §3, §4

The test system of assay [11] is intact rat aorta. The assay is described as follows: Vascular reactivity, relaxation of PE pre-contracted aortic rings. On the set-up: species or system Sprague Dawley rats. To be noted: 10^−9–10^−4 M, pre-contracted with 10^−6 M PE, three experiments. As for the experimental part:
The investigation was conducted according to the local ethics research committee of Universidad de Antofagasta, which ratified the experimental procedures (CEIC #275/2020 and CEIC #366/2022) for the use of a normotensive animal model (n = 3–6). The characteristics of the animals were as follows: male Sprague Dawley rats, six to eight weeks old, weighing between 170 and 200 g. The animals were kept at room temperature (22–25 °C) with 45–51% of humidity with ad libitum free-choice access to tap water and food and were randomized.
All the animals were euthanized by cervical dislocation and immediately proceeded to dissection of the aorta. Then the vascular tissue was arranged in organ baths that were filled with Krebs-Ringer bicarbonate solution pH 7.4 and remained at 37 °C with a constant flux of gas (95% O2 and 5% CO2). Once the tissue was stabilized and the integrity of the vascular endothelium was evaluated, the aortic rings were pre-contracted with 10^−6 M phenylephrine (PE), and after ten minutes, increasing concentrations of G. pinifolium extract, 2-nor-1,2-secolycoserone or ent-labda-8,13-E-diene-15-ol were added in the organ bath.
The data acquired from vascular reactivity assays were expressed as average ± standard error of the mean (SEM). One-way analysis of variance (ANOVA) followed by the Dunnett test was employed for statistical data analysis. […]

Assay [12] has as its system MCF-7. The arrangement: method as in doi:10.1016/j.indcrop.2015.06.033. As to conditions: 24 h of drug exposure; read-out: IC50 cell growth inhibition MCF-7; cited from earlier work.
Assay [13] concerns HeLa cells. Briefly: Label-free continuous live-cell imaging, apoptosis kinetics (LCDA). The format is cell-based, human. As to conditions: 20 h exposure, 1 at 80 µM, 2 at 50 µM. As for the experimental part:
The imaging platform microscope CX-A (Nanolive SA, Lausanne, Switzerland) was used to get refractive indexes (RIs), creating a holotomographic 3D image of the cells. HeLa cells were employed at a density of 50,000 cells/well onto an IBIDI μ-Dish, 35 mm high (IBIDI, Gräfelfing, Munich, Germany) and treated with compounds 1 and 2 right before the acquisition of the images at a dose of 80 µM and 50 µM, respectively. Data obtained were transferred to FIJI (NIH, Bethesda, MD, USA) for image analysis. The LIVE Cell Death Assay (LCDA) software (Nanolive SA) was used for the analysis of the RIs and for obtaining apoptosis kinetics.

The test system of assay [14] is A549, SW1573, HBL-100, T-47D, HeLa, WiDr. The assay is described as follows: Antiproliferative activity (SRB), panel of six human solid tumor cell lines. The format is cell-based. As to conditions: 48 h, read-out: GI50 range over all cell lines. As for the experimental part:
as §1, §2

“Also recorded” adds a separate entry of the source.

T2 sequence (O42275 24-633): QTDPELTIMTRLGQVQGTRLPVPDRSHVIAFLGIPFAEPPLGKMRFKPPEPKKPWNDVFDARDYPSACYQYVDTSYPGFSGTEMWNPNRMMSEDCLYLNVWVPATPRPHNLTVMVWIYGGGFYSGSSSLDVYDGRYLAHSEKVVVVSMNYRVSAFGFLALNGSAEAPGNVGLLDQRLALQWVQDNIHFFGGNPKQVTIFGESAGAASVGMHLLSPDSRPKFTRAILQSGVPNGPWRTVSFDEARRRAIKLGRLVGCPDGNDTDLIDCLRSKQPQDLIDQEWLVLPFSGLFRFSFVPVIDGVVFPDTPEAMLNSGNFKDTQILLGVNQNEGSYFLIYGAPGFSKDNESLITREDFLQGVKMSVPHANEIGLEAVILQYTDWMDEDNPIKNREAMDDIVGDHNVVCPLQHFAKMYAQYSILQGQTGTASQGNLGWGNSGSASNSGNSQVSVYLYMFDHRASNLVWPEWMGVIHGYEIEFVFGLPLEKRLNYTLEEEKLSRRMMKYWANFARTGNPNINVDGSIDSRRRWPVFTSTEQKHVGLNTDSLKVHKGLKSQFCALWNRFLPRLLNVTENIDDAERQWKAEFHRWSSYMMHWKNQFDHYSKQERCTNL
T1 sequence (P81908 whole entry): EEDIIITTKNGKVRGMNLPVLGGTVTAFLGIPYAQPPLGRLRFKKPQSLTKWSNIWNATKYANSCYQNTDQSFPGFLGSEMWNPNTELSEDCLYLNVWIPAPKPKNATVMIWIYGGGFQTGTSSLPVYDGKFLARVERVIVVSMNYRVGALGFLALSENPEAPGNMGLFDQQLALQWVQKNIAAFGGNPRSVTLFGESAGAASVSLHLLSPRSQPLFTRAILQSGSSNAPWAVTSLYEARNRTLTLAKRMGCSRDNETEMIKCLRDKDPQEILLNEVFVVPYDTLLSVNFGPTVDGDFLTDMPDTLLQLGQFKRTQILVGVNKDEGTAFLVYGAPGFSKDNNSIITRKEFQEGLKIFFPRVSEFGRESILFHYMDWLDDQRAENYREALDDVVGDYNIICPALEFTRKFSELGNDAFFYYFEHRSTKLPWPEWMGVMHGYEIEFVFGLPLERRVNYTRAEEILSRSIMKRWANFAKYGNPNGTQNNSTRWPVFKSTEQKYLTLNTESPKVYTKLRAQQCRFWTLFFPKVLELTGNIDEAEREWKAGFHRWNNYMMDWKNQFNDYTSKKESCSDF

For the molecule `Cc1c(C)c2c(c(C)c1O)CCC(C)(C(=O)O)O2` (racemic) [Trolox, (±)-6-Hydroxy-2,5,7,8-tetramethylchromane-2-carboxylic acid], the “ABTS IC50” value in [1] was found to be 2.33 ± 0.11 μg per mL.

Consider `Cc1cc(C(C)(C)C)c(O)c(C(C)(C)C)c1` [BHT], for which, in assay [2], the “DPPH IC50” value was determined as 25.09 ± 0.55 μg per mL.

As usually defined, the GI50 is the concentration that inhibits growth by half. Turning to `N.N.[Cl][Pt][Cl]` [Cisplatin, reference compound], the concentration for 50% growth inhibition (GI50) in assay [3] was determined as 23 ± 4.3 µM; in assay [4] (48 h), 4.9 ± 0.2 µM; in assay [5], 1.8 ± 0.5 µM; in assay [6] (48 h) it was 2.7 ± 0.4 µM; in assay [7] (48 h), 1.9 ± 0.2 µM; in assay [8] it was 17 ± 3.3 µM.

The term IC50 denotes the point on the concentration scale where inhibition reaches its midpoint. For `CC1=C(C(=O)CC(C)C)O[C@@H](CC(=O)c2c(C)cccc2O)[C@H]2[C@@H]1CC[C@@H]2C` [Compound 1, 2-nor-1,2-secolycoserone], the GI50 in [3] (Homo sapiens, WiDr) was found to be 36 ± 4.1 µM; in [4] (Homo sapiens, A549, 48 h), 23 ± 7.2 µM; in [5] (Homo sapiens, HeLa), 21 ± 4.5 µM; in [6] (Homo sapiens, SW1573, 48 h) it was 25 ± 5.6 µM; in assay [7] (Homo sapiens, HBL-100, 48 h), 31 ± 0.3 µM; in assay [8] (Homo sapiens, T47D), 30 ± 0.1 µM. In addition, the half-inhibitory concentration (IC50) in assay [9] is 29.2 µM; in [10] it was 3.15 µM; in assay [12], 15 µM. Besides, in [11], the “relaxation effect in aortic rings” value was “slight relaxation effect; also recorded: do not cause vascular relaxation”. Moreover, the “TGI (total growth inhibition) against HeLa cells” value in [5] came out at 82 ± 4.5 µM. In [5] (Homo sapiens, HeLa), the LC50 (50% lethal concentration) is over 100 µM.

With `CC1=C(CC/C(C)=C/CO)[C@]2(C)CCCC(C)(C)C2CC1` (stereo partly drawn) [Compound 2, ent-labda-8,13-E-diene-15-ol], the concentration for 50% growth inhibition (GI50) in assay [3] (Homo sapiens, WiDr) was 9 ± 3.4 µM; in assay [4] (Homo sapiens, A549, 48 h), 4.5 ± 0.1 µM; in [5] (Homo sapiens, HeLa), 4.8 ± 0.3 µM; in [6] (Homo sapiens, SW1573, 48 h) it was 5.4 ± 0.6 µM; in [7] (Homo sapiens, HBL-100, 48 h), 10 ± 1.3 µM; in assay [14], 4.5 to 10 µM. Moreover, growth in assay [8] (Homo sapiens, T47D) was halved (GI50) at 5.1 ± 0.3 µM. Also, the IC50 in [9] is 63.1 µM; in assay [10] it was 18.8 µM. Moreover, in assay [11], the “relaxation effect in aortic rings” value was “slight relaxation effect; also recorded: do not cause vascular relaxation; also recorded: no vascular relaxation”. In addition, the “TGI (total growth inhibition) against HeLa cells” value in assay [5] came out at 46 ± 0.3 µM. Also, the LC50 (50% lethal concentration) in [5] (Homo sapiens, HeLa) was found to be 69 ± 27 µM. Also, the “apoptosis kinetics (onset of cell death)” value in assay [13] is given as “induce death in HeLa cells earlier than coumarin 1”.

(Values after article PMC9774750, “Phenolic Fingerprinting and Bioactivity Profiling of Extracts and Isolated Compounds from Gypothamnium pinifolium Phil” (Antioxidants, 2022).)
